Measurements as given in PubChem BioAssay (NCI).
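Protocol summary: plate cells (96-well), add compound at 5 concentrations, incubate 48 h, interpolate endpoints linearly. GI50 is the concentration that inhibits growth by half. TGI is the concentration that stops growth completely.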

Experiments:
Experiment in all cases: NCI-60 cell line screen, 48 h
[1] = tested on: T-47D breast
[2] = tested on: PC-3 prostate
[3] = tested on: CAKI-1 renal
[4] = tested on: ACHN renal
[5] = tested on: SNB-19 CNS
[6] = tested on: HCT-15 colon
[7] = tested on: MDA-MB-435
[8] = tested on: OVCAR-4 ovarian
[9] = tested on: M14 melanoma
[10] = tested on: SR leukemia
[11] = tested on: HCC-2998 colon
[12] = tested on: A498 renal
[13] = tested on: TK-10 renal
[14] = tested on: K-562 leukemia
[15] = tested on: RPMI-8226 leukemia
[16] = tested on: OVCAR-3 ovarian
[17] = tested on: HL-60(TB) leukemia
[18] = tested on: NCI/ADR-RES ovarian
[19] = tested on: KM12 colon
[20] = tested on: MDA-MB-468 breast
[21] = tested on: U251 CNS
[22] = tested on: HOP-92 NSCLC
[23] = tested on: UACC-257 melanoma
[24] = tested on: OVCAR-5 ovarian
[25] = tested on: SNB-75 CNS
[26] = tested on: SF-295 CNS
[27] = tested on: CCRF-CEM leukemia
[28] = tested on: A549 NSCLC
[29] = tested on: UACC-62 melanoma
[30] = tested on: 786-0 renal
[31] = tested on: IGROV1 ovarian
[32] = tested on: MOLT-4 leukemia
[33] = tested on: OVCAR-8 ovarian
[34] = tested on: SN12C renal
[35] = tested on: SF-268 CNS
[36] = tested on: HS 578T breast
[37] = tested on: RXF 393 renal
[38] = tested on: NCI-H522 lung
[39] = tested on: HT29 colon
[40] = tested on: COLO 205 colon
[41] = tested on: MDA-MB-231 breast
[42] = tested on: SK-MEL-28 melanoma
[43] = tested on: SF-539 CNS
[44] = tested on: HCT-116 colon
[45] = tested on: SW-620 colon
[46] = tested on: UO-31 renal
[47] = tested on: NCI-H460 lung
[48] = tested on: DU-145 prostate
[49] = tested on: EKVX NSCLC
[50] = tested on: MCF7 breast
[51] = tested on: MALME-3M melanoma
[52] = tested on: HOP-62 NSCLC
[53] = tested on: NCI-H23 lung
[54] = tested on: SK-MEL-5 melanoma
[55] = tested on: LOX IMVI melanoma
[56] = tested on: SK-MEL-2 melanoma
[57] = tested on: NCI-H226 lung
[58] = tested on: SK-OV-3 ovarian
[59] = tested on: BT-549 breast

CCOC(=O)C(Cc1ccccc1)N1C(=O)/C(=C/N2N=C(c3ccc(OC)cc3)CC2c2ccc3ccccc3c2)SC1=S (stereo not drawn)
GI50 [1]: 3.06 µM | TGI [1]: 34.1 µM | GI50 [2]: 3.78 µM | TGI [2]: 40.9 µM | GI50 [3]: 3.76 µM | TGI [3]: 21.7 µM | GI50 [4]: 4.86 µM | TGI [4]: 21.7 µM | GI50 [5]: 3.35 µM | TGI [5]: 16.4 µM | GI50 [6]: 2.6 µM | TGI [6]: 10.4 µM | GI50 [7]: 3.57 µM | TGI [7]: 17.8 µM | GI50 [8]: 6.63 µM | TGI [8]: 40.1 µM | GI50 [9]: 4.49 µM | TGI [9]: 41.7 µM | GI50 [10]: 7.1 µM | TGI [10]: > 100 µM | GI50 [11]: 3.05 µM | TGI [11]: 10.2 µM | GI50 [12]: 5.08 µM | TGI [12]: 19.5 µM | GI50 [13]: 4.97 µM | TGI [13]: 19 µM | GI50 [14]: 3.69 µM | TGI [14]: > 100 µM | GI50 [15]: 2.79 µM | TGI [15]: > 100 µM | GI50 [16]: 3.21 µM | TGI [16]: 11.7 µM | GI50 [17]: 3.54 µM | TGI [17]: 16.5 µM | GI50 [18]: 14.1 µM | TGI [18]: 91.3 µM | GI50 [19]: 3.54 µM | TGI [19]: 13.3 µM | GI50 [20]: 2.33 µM | TGI [20]: 7.25 µM | GI50 [21]: 3.26 µM | TGI [21]: 20.4 µM | GI50 [22]: 2.65 µM | TGI [22]: 12.1 µM | GI50 [23]: 5.44 µM | TGI [23]: 23.1 µM | GI50 [24]: 13.6 µM | TGI [24]: 27.2 µM | GI50 [25]: 2.15 µM | TGI [25]: 19.3 µM | GI50 [26]: 2.11 µM | TGI [26]: 7.21 µM | GI50 [27]: 3.27 µM | TGI [27]: > 100 µM | GI50 [28]: 7.08 µM | TGI [28]: 27.3 µM | GI50 [29]: 2.33 µM | TGI [29]: 6.97 µM | GI50 [30]: 5.31 µM | TGI [30]: 27.9 µM | GI50 [31]: 4.09 µM | TGI [31]: 15.6 µM | GI50 [32]: 3.45 µM | TGI [32]: > 100 µM | GI50 [33]: 3.57 µM | TGI [33]: 15.3 µM | GI50 [34]: 3.34 µM | TGI [34]: 13.2 µM | GI50 [35]: 3.47 µM | TGI [35]: 22.9 µM | GI50 [36]: 2.62 µM | TGI [36]: 16.6 µM | GI50 [37]: 2.22 µM | TGI [37]: 6.36 µM | GI50 [38]: 2.49 µM | TGI [38]: 8.88 µM | GI50 [39]: 3.29 µM | TGI [39]: 13.5 µM | GI50 [40]: 3.09 µM | TGI [40]: 14.7 µM | GI50 [41]: 4.29 µM | TGI [41]: 17.9 µM | GI50 [42]: 3.5 µM | TGI [42]: 13.1 µM | GI50 [43]: 3.21 µM | TGI [43]: 10.4 µM | GI50 [44]: 3.3 µM | TGI [44]: 17.4 µM | GI50 [45]: 2.57 µM | TGI [45]: 17 µM | GI50 [46]: 4.86 µM | TGI [46]: 18.5 µM | GI50 [47]: 3.19 µM | TGI [47]: 13.8 µM | GI50 [48]: 11.2 µM | TGI [48]: 36.5 µM | GI50 [49]: 2.46 µM | TGI [49]: 11.5 µM | GI50 [50]: 2.35 µM | TGI [50]: 7.63 µM | GI50 [51]: 3.24 µM | TGI [51]: 13.6 µM | GI50 [52]: 3.82 µM | TGI [52]: 19.6 µM | GI50 [53]: 3.47 µM | TGI [53]: 14.5 µM | GI50 [54]: 2.24 µM | TGI [54]: 5.51 µM | GI50 [55]: 2.8 µM | TGI [55]: 10.8 µM | GI50 [56]: 2.18 µM | TGI [56]: 5.03 µM | GI50 [57]: 2.56 µM | TGI [57]: 12.8 µM | GI50 [58]: 5.28 µM | TGI [58]: 20.6 µM | GI50 [59]: 5.79 µM | TGI [59]: 19.8 µM
